Measurements: patent US20060045953A1 (priority 2004, published 2006)

Molecular target: T1, hT1R2/hT1R3 sweet receptor (Homo sapiens, UniProt Q7RTX0+Q8TE23)
T1 construct: expressed in transfected cells; host or cells: HEK293 derivative stably expressing Gα15, clone S-9
T1 sequence (Q8TE23 20-839): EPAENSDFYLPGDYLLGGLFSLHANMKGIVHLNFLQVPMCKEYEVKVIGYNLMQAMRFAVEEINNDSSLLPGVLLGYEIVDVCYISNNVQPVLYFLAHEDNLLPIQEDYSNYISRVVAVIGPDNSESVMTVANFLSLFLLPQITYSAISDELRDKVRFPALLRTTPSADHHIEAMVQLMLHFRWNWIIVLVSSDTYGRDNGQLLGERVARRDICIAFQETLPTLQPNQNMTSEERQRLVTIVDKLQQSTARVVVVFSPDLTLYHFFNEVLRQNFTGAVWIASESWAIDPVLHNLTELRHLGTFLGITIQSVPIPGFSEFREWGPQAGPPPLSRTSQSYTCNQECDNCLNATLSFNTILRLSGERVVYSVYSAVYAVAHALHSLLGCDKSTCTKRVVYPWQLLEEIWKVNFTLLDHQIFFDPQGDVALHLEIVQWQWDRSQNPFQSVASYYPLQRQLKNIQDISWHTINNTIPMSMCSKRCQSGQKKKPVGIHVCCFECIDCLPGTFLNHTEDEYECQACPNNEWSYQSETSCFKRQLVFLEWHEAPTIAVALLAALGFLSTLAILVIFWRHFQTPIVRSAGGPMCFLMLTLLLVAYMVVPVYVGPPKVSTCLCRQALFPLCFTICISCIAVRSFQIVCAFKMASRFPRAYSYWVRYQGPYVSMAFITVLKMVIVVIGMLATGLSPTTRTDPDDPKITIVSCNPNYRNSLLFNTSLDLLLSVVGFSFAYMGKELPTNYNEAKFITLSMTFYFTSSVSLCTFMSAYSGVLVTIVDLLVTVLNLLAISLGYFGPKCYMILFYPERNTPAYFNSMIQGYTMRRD
T1 sequence (Q7RTX0 21-852): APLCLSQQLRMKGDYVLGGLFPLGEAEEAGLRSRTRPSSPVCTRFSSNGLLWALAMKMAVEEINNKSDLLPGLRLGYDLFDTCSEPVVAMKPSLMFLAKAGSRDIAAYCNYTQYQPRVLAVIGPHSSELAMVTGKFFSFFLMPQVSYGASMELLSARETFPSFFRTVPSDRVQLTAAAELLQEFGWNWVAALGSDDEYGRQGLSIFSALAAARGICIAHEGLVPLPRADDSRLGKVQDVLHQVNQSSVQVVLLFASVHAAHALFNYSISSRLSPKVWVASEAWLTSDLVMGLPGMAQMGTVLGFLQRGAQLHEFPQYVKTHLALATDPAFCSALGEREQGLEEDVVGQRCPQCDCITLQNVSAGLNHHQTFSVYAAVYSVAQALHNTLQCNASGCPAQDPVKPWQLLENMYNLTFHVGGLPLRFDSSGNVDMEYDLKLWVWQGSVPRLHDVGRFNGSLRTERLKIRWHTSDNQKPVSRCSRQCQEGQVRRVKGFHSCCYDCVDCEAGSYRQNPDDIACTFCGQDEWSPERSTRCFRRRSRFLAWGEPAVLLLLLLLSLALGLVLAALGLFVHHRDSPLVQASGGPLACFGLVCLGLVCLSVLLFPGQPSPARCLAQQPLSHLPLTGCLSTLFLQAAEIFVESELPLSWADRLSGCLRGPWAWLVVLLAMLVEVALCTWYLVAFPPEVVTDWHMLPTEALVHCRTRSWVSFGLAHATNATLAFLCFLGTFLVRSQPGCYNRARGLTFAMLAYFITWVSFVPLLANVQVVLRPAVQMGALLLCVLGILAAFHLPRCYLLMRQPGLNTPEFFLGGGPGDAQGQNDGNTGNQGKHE
Assay: In vitro hT1R2/hT1R3 sweet taste receptor activation assay (FLIPR, dose response)
Assay type: cell-based
Conditions: Table E, Sweet Enhancer Amides; read-out: Sweet EC50
How it was run: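 Dose-response at 10 concentrations (60 nM–30 µM, duplicates) measured as Fluo-3AM calcium fluorescence on FLIPR in hT1R2/hT1R3 S-9 cells, in D-PBS at room temperature. Responses scaled to 400 mM D-fructose. EC50s from regression with all curve parameters floating.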

EC50 | Compound
1.89 µM | CC1CCCC(NC(=O)c2cncc(Br)c2)C1C (stereo not shown) [Example E55, 5-bromo-N-(2,3-dimethylcyclohexyl)mcotmamide]
2.23 µM | Cc1c(F)c(F)c(C(=O)NC2CCCC2)c(F)c1F [Example E58, N-cyclopentyl-2,3,5,6-tetrafluoro-4-methylbenzamide]
2.42 µM | CC1CCCCC1NC(=O)c1cncc(Br)c1 (stereo not shown) [Example E62, 5-bromo-N-(2-methylcyclohexyl)nicotinamide]
2.77 µM | CC1CCCC(NC(=O)c2c(Cl)cccc2Cl)C1C (stereo not shown) [Example E64, 2,6-dichloro-N-(2,3-dimethylcyclohexyl)benzamide]
2.83 µM | CC1CCCCC1NC(=O)c1ccnc(F)c1 (stereo not shown) [Example E65, 2-fluoro-N-(2-methylcyclohexyl)isonicotinamide]
3.62 µM | CC1CCCC(NC(=O)Cc2c(F)c(F)c(F)c(F)c2F)C1C (stereo not shown) [Example E74, N-(2,3-dimethylcyclohexyl)-2-(perfluorophenyl)acetamide]
3.78 µM | CCC(CC)NC(=O)c1cccc(Cl)c1Cl [Example E75, 2,3-dichloro-N-(pentan-3-yl)benzamide]
3.99 µM | CC1CCCC(NC(=O)c2cccc(Cl)c2Cl)C1C (stereo not shown) [Example E76, 2,3-dichloro-N-(2,3-dimethylcyclohexyl)benzamide]
4.11 µM | CC1CCCC(NC(=O)c2cc(F)ccc2F)C1C (stereo not shown) [Example E77, N-(2,3-dimethylcyclohexyl)-2,5-difluorobenzamide]
4.29 µM | Cc1c(Cl)cccc1C(=O)NC1CCCCC1C (stereo not shown) [Example E80, 3-chloro-2-methyl-N-(2-methylcyclohexyl)benzamide]
4.37 µM | CC1CCCCC1NC(=O)c1ccc(F)c(F)c1 (stereo not shown) [Example E81]
1.42 µM | COc1cc(Cl)c(NC(=O)c2cccc(C(F)(F)F)c2)c(OC)c1 [Example E85, N-(2-Chloro-4,6-dimethoxy-phenyl)-3-trifluoromethyl-benzamide]
1.48 µM | COc1c(Cl)cc(C(=O)Nc2ccc(C)cc2C)cc1Cl [Example E86, 3,5-dichloro-N-(2,4-dimethylphenyl)-4-methoxybenzamide]
2.56 µM | O=C(Nc1ccc(F)cc1F)c1cc(Cl)ccc1O [Example E89, 5-Chloro-N-(2,4-difluoro-phenyl)-2-hydroxy-benzamide]
2.74 µM | N#Cc1ccc(NC(=O)c2c(Cl)cccc2Cl)cc1 [Example E91, 2,6-Dichloro-N-(4-cyano-phenyl)-benzamide]
4.25 µM | COc1c(Cl)ccc(Cl)c1C(=O)Nc1ccc(C)cc1C [Example E97, 3,6-Dichloro-N-(2,4-dimethyl-phenyl)-2-methoxy-benzamide]

The next lines start with the molecule.

Compound | EC50
CC1CCCCC1NC(=O)c1ccc(Cl)c(Cl)c1 (stereo not shown) [Example E54, 3,4-dichloro-N-(2-methylcyclohexyl)benzamide] | 1.83 µM
CC1CCCCC1NC(=O)c1ccnc(Cl)c1 (stereo not shown) [Example E56, 2-chloro-N-(2-methylcyclohexyl)isonicotinamide] | 1.92 µM
Cc1cccc(C(=O)NC2CCCCC2C)c1Cl (stereo not shown) [Example E57, 2-chloro-3-methyl-N-(2-methylcyclohexyl)benzamide] | 1.95 µM
CC1CCCCC1NC(=O)c1cccc(C(F)(F)F)c1 (stereo not shown) [Example E59, N-(2-methylcyclohexyl)-3-(trifluoromethyl)benzamide] | 2.34 µM
CC1CCC(NC(=O)c2ccc(F)c(C(F)(F)F)c2)CC1 (stereo not shown) [Example E60, 4-fluoro-N-(4-methylcyclohexyl)-3-(trifluoromethyl)benzamide] | 2.37 µM
CC1CCCCC1NC(=O)c1cccc(C(F)(F)F)c1F (stereo not shown) [Example E61, 2-fluoro-N-(2-methylcyclohexyl)-3-(trifluoromethyl)benzamide] | 2.4 µM
Cc1cccc(C(=O)NC2CCCCC2C)c1C (stereo not shown) [Example E63, 2,3-dimethyl-N-(2-methylcyclohexyl)benzamide] | 2.6 µM
Cc1cc(C)c(C(=O)NC2CCCCC2)c(C)c1 [Example E66, N-cyclohexyl-2,4,6-trimethylbenzamide] | 2.86 µM
Cc1ccc(C(=O)NC2CCC(C)CC2)c(O)c1 (stereo not shown) [Example E67, 2-hydroxy-4-methyl-N-(4-methylcyclohexyl)benzamide] | 2.98 µM
Cc1c(F)c(F)c(C(=O)NCC(C)C)c(F)c1F [Example E69, 2,3,5,6-tetrafluoro-N-isobutyl-4-methylbenzamide] | 3.19 µM
Cc1c(F)c(F)c(C(=O)NC(C)CCC(C)C)c(F)c1F (stereo not shown) [Example E70, 2,3,5,6-tetrafluoro-4-methyl-N-(5-methylhexan-2-yl)benzamide] | 3.2 µM
CC1CCCCC1NC(=O)c1ccc2nonc2c1 (stereo not shown) [Example E71] | 3.33 µM
COc1cccc(C(=O)NC2CCC(C)CC2)c1O (stereo not shown) [Example E72, 2-hydroxy-3-methoxy-N-(4-methylcyclohexyl)benzamide] | 3.35 µM
CC12CCC(C1)C(C)(C)C2NC(=O)c1cccs1 (stereo not shown) [Example E73, Thiophene-2-carboxylic acid (1,3,3-trimethyl-bicyclo[2.2.1]hept-2-yl)-amide] | 3.36 µM
CC(C)C(NC(=O)c1c(O)cccc1O)C(C)C [Example E79, N-(2,4-dimethylpentan-3-yl)-2,6-dihydroxybenzamide] | 4.28 µM
Cc1cc(C)cc(C(=O)NC2CCCCC2C)c1 (stereo not shown) [Example E82, 3,5-dimethyl-N-(2-methylcyclohexyl)benzamide] | 4.48 µM
CCOc1ccc(CCNC(=O)c2ccnn2C)cc1 [Example E83, N-(4-ethoxyphenethyl)-1-methyl-i H-pyrazole-5-carboxamide] | 4.68 µM
COc1c(Cl)ccc(Cl)c1C(=O)Nc1ccccc1F [Example E84, 3,6-dichloro-N-(2-fluorophenyl)-2-methoxybenzamide] | 0.83 µM
O=C(Nc1nnc(C(F)(F)F)s1)c1ccc(F)c(Cl)c1 [Example E87, 3-Chloro-4-fluoro-N-(5-trifluoromethyl-[1,3,4]thiadiazol-2-yl)-benzamide] | 1.55 µM
COc1c(Cl)cc(C(=O)Nc2ccccc2C)cc1Cl [Example E88, 3,5-dichloro-4-methoxy-N-o-tolylbenzamide] | 1.84 µM
N#Cc1c(F)cccc1NC(=O)c1ccc(Cl)cc1Cl [Example E90, 2,4-Dichloro-N-(2-cyano-3-fluoro-phenyl)-benzamide] | 2.71 µM
Cc1ccc(NC(=O)c2ccc(Cl)c(C)c2)c(C)c1 [Example E92, 4-chloro-N-(2,4-dimethylphenyl)-3-methylbenzamide] | 2.74 µM
COc1ccc(NC(=O)c2cc(Cl)c(OC)c(Cl)c2)cc1 [Example E93, 3,5-dicbloro-4-methoxy-N-(4-methoxyphenyl)benzamide] | 3.24 µM
COc1ccc(NC(=O)c2ccc(F)c(Cl)c2)c(OC)c1 [Example E94, 3-chloro-N-(2,4-dimethoxyphenyl)-4-fluorobenzamide] | 3.56 µM
CSc1nc(C)c(C(=O)Nc2ccccc2)c(C)c1C#N [Example E95, 5-Cyano-2,4-dimethyl-6-methylsulfanyl-N-phenyl-nicotinamide] | 3.58 µM
CC(C)(C)c1csc(NC(=O)c2ccncc2)n1 [Example E96, N-(4-tert-Butyl-thiazol-2-yl)-isonicotinamide] | 3.73 µM
CCc1cccc(NC(=O)c2c(C)cccc2OC)c1 [Example E98, N-(3-ethylphenyl)-2-methoxy-6-methylbenzamide] | 4.63 µM
